According to US20250296934A1, “AZEPINOINDOLES AND METHODS OF PREPARATION THEREOF” (priority 2022, published 2025):
Like-named read-outs stand apart in the source and are kept apart here.

Columns and labels:
[1] = molecular target: T1, 5-HT2C (Homo sapiens, UniProt P28335); test: cell-based; assay type: cell-based; set-up: expressed in transfected cells; host or cells: HEK293T; settings: for EC50: Gq dissociation BRET, HEK293T
T1 sequence (P28335 33-458): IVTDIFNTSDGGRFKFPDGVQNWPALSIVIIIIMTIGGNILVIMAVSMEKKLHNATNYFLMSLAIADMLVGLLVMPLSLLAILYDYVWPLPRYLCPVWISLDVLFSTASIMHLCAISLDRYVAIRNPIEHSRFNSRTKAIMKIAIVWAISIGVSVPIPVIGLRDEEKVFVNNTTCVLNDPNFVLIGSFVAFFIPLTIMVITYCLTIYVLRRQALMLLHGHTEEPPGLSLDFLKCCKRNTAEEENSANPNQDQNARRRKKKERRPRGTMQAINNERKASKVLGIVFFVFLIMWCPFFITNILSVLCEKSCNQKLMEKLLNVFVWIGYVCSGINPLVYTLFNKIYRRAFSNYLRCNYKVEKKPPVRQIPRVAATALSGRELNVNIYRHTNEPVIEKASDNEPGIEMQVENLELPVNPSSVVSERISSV

[2] = molecular target: T2, 5-HT2A (Homo sapiens, UniProt P28223); test: 5-HT2A Gq dissociation BRET functional assay; assay type: cell-based; set-up: expressed in transfected cells; host or cells: HEK293T; settings: for 5-HT2A BRET Eff: normalized to % 5-HT stimulation
T2 sequence (P28223 whole entry): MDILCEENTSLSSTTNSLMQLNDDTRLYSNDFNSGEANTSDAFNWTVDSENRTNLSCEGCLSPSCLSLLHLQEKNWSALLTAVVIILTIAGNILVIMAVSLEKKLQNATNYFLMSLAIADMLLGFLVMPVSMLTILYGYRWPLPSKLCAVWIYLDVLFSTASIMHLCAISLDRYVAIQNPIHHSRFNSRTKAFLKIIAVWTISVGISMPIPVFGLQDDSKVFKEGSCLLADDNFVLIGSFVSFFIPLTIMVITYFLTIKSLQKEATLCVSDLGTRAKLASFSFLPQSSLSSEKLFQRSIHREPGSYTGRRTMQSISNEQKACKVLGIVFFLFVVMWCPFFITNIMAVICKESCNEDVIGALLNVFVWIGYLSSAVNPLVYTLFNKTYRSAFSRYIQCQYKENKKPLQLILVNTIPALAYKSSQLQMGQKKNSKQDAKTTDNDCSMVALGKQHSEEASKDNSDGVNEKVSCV

[3] = molecular target: T3, 5-HT2B (Homo sapiens, UniProt P41595); test: 5-HT2B Gq dissociation BRET functional assay; assay type: cell-based; set-up: expressed in transfected cells; host or cells: HEK293T; settings: for 5-HT2B BRET Eff: normalized to % 5-HT stimulation
Target sequence in this assay (P41595 whole entry): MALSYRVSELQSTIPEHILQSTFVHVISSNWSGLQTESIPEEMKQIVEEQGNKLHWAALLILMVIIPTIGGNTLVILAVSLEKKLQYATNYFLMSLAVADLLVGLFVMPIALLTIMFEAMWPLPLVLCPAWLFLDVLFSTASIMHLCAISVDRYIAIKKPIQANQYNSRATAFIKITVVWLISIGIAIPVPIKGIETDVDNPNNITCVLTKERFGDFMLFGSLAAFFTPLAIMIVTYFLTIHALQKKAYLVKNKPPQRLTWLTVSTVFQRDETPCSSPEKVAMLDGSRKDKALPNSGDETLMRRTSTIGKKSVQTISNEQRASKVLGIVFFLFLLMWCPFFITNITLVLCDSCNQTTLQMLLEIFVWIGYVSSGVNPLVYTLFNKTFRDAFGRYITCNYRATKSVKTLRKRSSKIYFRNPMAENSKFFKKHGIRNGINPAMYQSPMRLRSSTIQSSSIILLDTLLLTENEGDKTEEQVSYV

[4] = In vitro hepatocyte clearance, human; assay type: in vitro ADME; settings: Human hepatocytes; for half-life: read-out: In vitro T1/2; for CLint scaled: read-out: Scale-up Clint
Method: (§1) Additional experimentation was performed on compounds 1, W5, and A93. Table 6a, 6b and 6c summarize, among other things, the anticipated hepatic clearance of compounds 1, W5 and A93 respectively, in various species, as specified in Table 6a, 6b and 6c and as determined by calculating the in vitro hepatocyte clearance over time and scaling such rate with such species' hepatocyte count and the anticipated liver blood flow rate in such species.

[5] = system: hepatocyte; test: In vitro hepatocyte clearance, human; assay type: in vitro ADME; settings: Human
Method: as §1

[6] = In vitro hepatocyte clearance, mouse; assay type: in vitro ADME; settings: Mouse hepatocytes; for half-life: read-out: In vitro T1/2; for CLint scaled: read-out: Scale-up Clint
Method: as §1

[7] = system: hepatocyte; test: In vitro hepatocyte clearance, mouse; assay type: in vitro ADME; settings: Mouse
Method: as §1

[8] = system: mice; test: Head Twitch Response (HTR) in mice; assay type: in vivo; settings: Mus musculus, 1 h, measured over a 60 minute interval
Method: Head Twitch Response (HTR) was assessed using a head-mounted neodymium magnet and a magnetometer detection coil, as described in Halberstadt et al., Psychopharmacology (Berl.), 2013, 227 (4): 727-739. Table 8 below summarizes the ED50 in head twitch (as measured over a 60 minute interval) in mice as a result of Compound 1 as compared to psilocybin.

[9] = molecular target: 5-HT5A (Homo sapiens, UniProt P47898); test: 5-HT receptor activity (Table 3), 5-HT5A; assay type: cell-based
5-HT5A, sequence (P47898 whole entry, species assumed): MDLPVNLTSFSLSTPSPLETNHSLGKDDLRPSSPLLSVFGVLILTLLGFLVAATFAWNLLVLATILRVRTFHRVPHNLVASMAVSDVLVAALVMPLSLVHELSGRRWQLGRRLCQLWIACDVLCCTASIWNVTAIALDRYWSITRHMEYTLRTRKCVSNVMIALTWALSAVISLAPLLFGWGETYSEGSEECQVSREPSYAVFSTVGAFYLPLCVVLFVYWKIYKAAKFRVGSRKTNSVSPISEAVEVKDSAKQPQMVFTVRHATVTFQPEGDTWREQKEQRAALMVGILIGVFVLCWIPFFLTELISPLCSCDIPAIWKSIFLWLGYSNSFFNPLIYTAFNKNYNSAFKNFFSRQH

[10] = molecular target: 5-HT7 (Homo sapiens, UniProt P34969); test: 5-HT receptor activity (Table 3), 5-HT7; assay type: cell-based
5-HT7, sequence (P34969 whole entry, species assumed): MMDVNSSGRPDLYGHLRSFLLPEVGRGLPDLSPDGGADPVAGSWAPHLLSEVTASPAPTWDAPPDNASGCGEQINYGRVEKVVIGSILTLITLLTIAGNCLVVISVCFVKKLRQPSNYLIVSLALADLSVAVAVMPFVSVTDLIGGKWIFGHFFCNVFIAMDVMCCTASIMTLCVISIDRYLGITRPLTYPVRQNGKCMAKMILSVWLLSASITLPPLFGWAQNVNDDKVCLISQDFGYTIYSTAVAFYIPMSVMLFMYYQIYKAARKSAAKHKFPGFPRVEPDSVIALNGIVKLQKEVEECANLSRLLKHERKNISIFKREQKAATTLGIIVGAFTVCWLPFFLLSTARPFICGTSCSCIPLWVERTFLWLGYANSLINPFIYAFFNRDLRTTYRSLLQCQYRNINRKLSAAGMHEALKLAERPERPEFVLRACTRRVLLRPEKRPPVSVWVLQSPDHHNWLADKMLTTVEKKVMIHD

[11] = molecular target: 5-HT1E (Homo sapiens, UniProt P28566); test: 5-HT receptor activity (Table 3), 5-HT1E; assay type: cell-based
5-HT1E, sequence (P28566 whole entry, species assumed): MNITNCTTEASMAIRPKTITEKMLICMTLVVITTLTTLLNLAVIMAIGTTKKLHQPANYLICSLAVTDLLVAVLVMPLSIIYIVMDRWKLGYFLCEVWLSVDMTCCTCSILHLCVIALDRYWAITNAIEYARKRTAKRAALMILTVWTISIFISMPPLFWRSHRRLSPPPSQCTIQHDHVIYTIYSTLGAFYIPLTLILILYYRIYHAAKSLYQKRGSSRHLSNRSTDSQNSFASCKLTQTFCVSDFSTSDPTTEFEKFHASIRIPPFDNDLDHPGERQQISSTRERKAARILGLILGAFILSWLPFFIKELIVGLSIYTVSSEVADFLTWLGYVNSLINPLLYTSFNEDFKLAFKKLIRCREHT

[12] = molecular target: T4, 5-HT1F (Homo sapiens, UniProt P30939); test: 5-HT receptor activity (Table 3), 5-HT1F; assay type: cell-based
T4 sequence (P30939 1-366): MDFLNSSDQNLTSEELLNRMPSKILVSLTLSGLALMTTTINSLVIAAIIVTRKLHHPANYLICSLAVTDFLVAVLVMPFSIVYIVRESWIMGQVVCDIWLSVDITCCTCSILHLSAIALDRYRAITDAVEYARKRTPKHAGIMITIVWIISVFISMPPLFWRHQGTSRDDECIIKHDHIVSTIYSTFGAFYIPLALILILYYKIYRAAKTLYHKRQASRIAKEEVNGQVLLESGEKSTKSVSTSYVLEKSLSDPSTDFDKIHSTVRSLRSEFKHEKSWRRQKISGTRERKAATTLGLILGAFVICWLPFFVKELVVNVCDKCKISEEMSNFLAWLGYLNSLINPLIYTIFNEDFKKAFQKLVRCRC

[13] = molecular target: 5-HT1D (Homo sapiens, UniProt P28221); test: 5-HT receptor activity (Table 3), 5-HT1D; assay type: cell-based
5-HT1D, sequence (P28221 whole entry, species assumed): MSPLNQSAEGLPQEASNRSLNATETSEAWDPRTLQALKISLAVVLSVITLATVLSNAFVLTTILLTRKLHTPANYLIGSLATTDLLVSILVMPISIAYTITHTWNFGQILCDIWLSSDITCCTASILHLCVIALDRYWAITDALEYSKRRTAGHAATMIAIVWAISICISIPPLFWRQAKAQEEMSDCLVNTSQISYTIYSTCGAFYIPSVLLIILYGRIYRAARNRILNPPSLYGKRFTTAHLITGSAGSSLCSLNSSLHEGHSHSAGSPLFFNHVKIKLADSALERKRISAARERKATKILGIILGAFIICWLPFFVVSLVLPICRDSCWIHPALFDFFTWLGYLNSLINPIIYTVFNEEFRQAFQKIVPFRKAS

[14] = molecular target: 5-HT1B (Homo sapiens, UniProt P28222); test: 5-HT receptor activity (Table 3), 5-HT1B; assay type: cell-based
5-HT1B, sequence (P28222 whole entry, species assumed): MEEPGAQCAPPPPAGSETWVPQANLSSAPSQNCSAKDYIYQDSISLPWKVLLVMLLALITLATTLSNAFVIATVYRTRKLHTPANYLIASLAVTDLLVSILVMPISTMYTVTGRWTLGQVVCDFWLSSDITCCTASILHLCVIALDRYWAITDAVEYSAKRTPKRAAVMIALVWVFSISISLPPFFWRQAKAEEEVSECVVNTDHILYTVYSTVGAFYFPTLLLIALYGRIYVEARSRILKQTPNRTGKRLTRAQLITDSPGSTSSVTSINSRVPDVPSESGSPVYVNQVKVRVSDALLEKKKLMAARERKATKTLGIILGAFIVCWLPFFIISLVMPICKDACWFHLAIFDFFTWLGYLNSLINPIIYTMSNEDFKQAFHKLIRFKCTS

[15] = molecular target: T2, 5-HT2A; test: 5-HT receptor activity (Table 3), 5-HT2A; assay type: cell-based; settings: 5-HT2A, Table 3
[16] = molecular target: 5-HT4 (Homo sapiens, UniProt Q13639); test: 5-HT receptor activity (Table 3), 5-HT4; assay type: cell-based
5-HT4, sequence (Q13639 whole entry, species assumed): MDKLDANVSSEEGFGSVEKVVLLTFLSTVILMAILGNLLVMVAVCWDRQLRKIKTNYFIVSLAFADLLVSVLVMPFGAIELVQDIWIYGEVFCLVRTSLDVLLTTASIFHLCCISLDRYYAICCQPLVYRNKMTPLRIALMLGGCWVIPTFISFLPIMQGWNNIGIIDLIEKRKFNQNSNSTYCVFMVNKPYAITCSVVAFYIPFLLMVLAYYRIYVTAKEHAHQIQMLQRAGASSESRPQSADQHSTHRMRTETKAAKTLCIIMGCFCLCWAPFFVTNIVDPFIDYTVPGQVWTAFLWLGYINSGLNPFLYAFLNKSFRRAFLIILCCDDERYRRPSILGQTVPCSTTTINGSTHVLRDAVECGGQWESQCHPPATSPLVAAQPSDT

[17] = molecular target: T3, 5-HT2B; test: 5-HT receptor activity (Table 3), 5-HT2B; assay type: cell-based; settings: 5-HT2B, Table 3
Target sequence in this assay (P41595 whole entry, species assumed): as the sequence (P41595 whole entry) above

[18] = molecular target: 5-HT6 (Homo sapiens, UniProt P50406); test: 5-HT receptor activity (Table 3), 5-HT6; assay type: cell-based
5-HT6, sequence (P50406 whole entry, species assumed): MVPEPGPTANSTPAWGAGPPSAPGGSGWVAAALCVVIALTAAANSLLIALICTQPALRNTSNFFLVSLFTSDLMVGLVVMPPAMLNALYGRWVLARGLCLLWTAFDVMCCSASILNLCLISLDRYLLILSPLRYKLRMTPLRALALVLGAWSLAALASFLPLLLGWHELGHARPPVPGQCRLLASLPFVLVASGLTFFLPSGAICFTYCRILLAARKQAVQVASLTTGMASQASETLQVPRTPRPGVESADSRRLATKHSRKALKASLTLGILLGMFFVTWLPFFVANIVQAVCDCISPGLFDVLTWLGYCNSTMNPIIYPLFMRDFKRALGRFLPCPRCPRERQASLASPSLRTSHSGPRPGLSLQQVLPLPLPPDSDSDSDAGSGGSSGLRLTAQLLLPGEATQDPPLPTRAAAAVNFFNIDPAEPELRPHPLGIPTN

[19] = molecular target: T5, 5-HT1A (Homo sapiens, UniProt P08908); test: 5-HT receptor activity (Table 3), 5-HT1A; assay type: cell-based
T5 sequence (P08908 1-422): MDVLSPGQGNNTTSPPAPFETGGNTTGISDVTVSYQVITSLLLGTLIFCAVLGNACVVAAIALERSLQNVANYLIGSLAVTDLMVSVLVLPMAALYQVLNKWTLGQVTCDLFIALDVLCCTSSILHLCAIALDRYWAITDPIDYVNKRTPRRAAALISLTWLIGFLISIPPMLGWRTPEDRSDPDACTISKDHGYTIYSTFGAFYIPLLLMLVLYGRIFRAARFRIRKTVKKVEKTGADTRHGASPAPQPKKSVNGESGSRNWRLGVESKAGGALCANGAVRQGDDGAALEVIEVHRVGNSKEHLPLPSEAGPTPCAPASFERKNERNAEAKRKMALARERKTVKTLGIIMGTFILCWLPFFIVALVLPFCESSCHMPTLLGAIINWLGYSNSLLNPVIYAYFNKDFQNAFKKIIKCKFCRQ

[20] = normalized to % 5-HT stimulation

Row | Structure (SMILES) | 5-HT2A BRET Eff [2] [%] | 5-HT2B BRET Eff [3] [%] | 5-HT2C BRET Eff [1, 20] [%] | EC50 [1] [nM] | EC50 [2] [nM] | EC50 [3] [nM] | other results
1 | NCCc1c[nH]c2cccc(O)c12 [4-hydroxytryptamine, reference compound] | 100 | 100 | – | – | – | – | 5-HT2C BRET Eff [1]: 99%
2 | Cc1cccc2c(CCN(C)C)c[nH]c12 [7,N,N-TMT, reference compound] | 80 | 36 | 79 | – | – | – | EC50 ([3]; Gq dissociation BRET, HEK293T, read-out: 5-HT2B BRET EC50): 74.3 nM
3 | Cc1ccc(O)c2c3c([nH]c12)CCN(C)CC3 [Cpd #14 (W5)] | 89 | 25 | 87 | 1.3 | 3.9 | 22.7 | hepatocyte CLint [4]: 1.26 µL/min/1e6 cells; half-life [4]: 20.9 h; CLint scaled [4]: 3.22 mL/min/kg; Hepatic Extraction Ratio (E) [5]: 0.13; Predicted hepatic CL [5]: 2.74 mL/min/kg; hepatocyte CLint [6]: 40.7 µL/min/1e6 cells; half-life [6]: 0.568 h; CLint scaled [6]: 480 mL/min/kg; Hepatic Extraction Ratio (E) [7]: 0.84; Predicted hepatic CL [7]: 75.80 mL/min/kg
4 | Cc1ccc(O)c2c3c([nH]c12)CCN(Cc1ccccc1O)CC3 [Cpd #18 (A90)] | 76 | −2.6 | 93 | 24 | 31 | 2.7 | –
5 | Cc1cc(F)c(O)c2c3c([nH]c12)CCNCC3 [Cpd #27 (A92)] | 97 | 77 | 101 | 2.8 | 6.2 | 14 | –
6 | Cc1ccc(O)c2c3c([nH]c12)C(C)CNCC3 (centres unmarked) [Cpd #45 (W8)] | 98 | 54 | 99 | 1.2 | 6.4 | 1.3 | –
7 | CN1CCc2c(n(C)c3cccc(O)c23)CC1 [Cpd #64 (A96)] | 87 | 46 | 79 | 6.7 | 15.3 | 90.9 | –
8 | Cn1c2c(c3c(O)cccc31)CCNCC2 [Cpd #65 (A95)] | 96 | 70 | 93 | 2.8 | 5.9 | 40.3 | –
9 | CN1CCc2[nH]c3cccc(O)c3c2CC1 [Cpd #66 (A94)] | 91 | 28 | 89 | 18.8 | 8.1 | 47.9 | –
10 | Oc1cccc2[nH]c3c(c12)CCNCC3 [Cpd #67 (A93)] | 97 | 57 | 94 | 5.7 | 4 | 55.7 | hepatocyte CLint [4]: < 2.71 µL/min/1e6 cells; half-life [4]: > 8.53 h; CLint scaled [4]: < 6.89 mL/min/kg; Hepatic Extraction Ratio (E) [5]: <0.25; Predicted hepatic CL [5]: <5.17 mL/min/kg; hepatocyte CLint [6]: < 2.71 µL/min/1e6 cells; half-life [6]: > 8.53 h; CLint scaled [6]: < 32 mL/min/kg; Hepatic Extraction Ratio (E) [7]: <0.26; Predicted hepatic CL [7]: <23.60 mL/min/kg
11 | Cc1ccc(O)c2[nH]c3c(c12)CCNCC3 [Pharm-159] | 96 | 95 | 99 | 0.17 | 3.5 | 3 | –
12 | CN(C)CCc1c[nH]c2cccc(OP(=O)(O)O)c12 [Psilocybin, psilocybin, reference compound] | – | – | – | – | – | – | ED50 [8]: 0.38 mg/kg
13 | CN(C)CCc1c[nH]c2cccc(O)c12 [psilocin, reference compound] | 82 | 63 | – | – | – | – | Eff [9]: 48%; Eff [10]: 86%; Eff [11]: 90%; Eff [12]: 93%; Eff [13]: 102%; Eff [14]: 94%; Eff [15]: 80%; Eff [16]: 81%; Eff [17]: 32%; Eff [18]: 74%; Eff [19]: 93%
